Reference: patent US20020048549A1, “Radioactive transition metal nitride heterocomplex” (priority 1996, published 2002)
Where two headings read alike, the source gives them in different places.

Experiments:
[1] = Stability of the complex / its solution after preparation; assay type: physicochemical; settings: reaction solution after preparation
Protocol: In a mixture of 0.6 ml of ethanol and […] ( 1 mol/l) of an aqueous HCl solution were dissolved 5 mg of SDH and 1.5 mg of PNP, followed by adding thereto a physiologically acceptable ^99mTcO4^− solution ( 0.5 ml, 50 MBq). The resulting mixture was heated at 80° C. for 20 minutes and then cooled to 40° C., after which 0.25 ml of HCO3^−/CO3^2− buffer was added thereto to adjust the pH at about 8.0. Subsequently, a solution of 0.5 mg of βglu in 1.5 ml of water was added. The complex finally obtained was analyzed by […] and HPLC. […] The radiochemical purity of the final complex was higher than 95%. […]
In a mixture of 0.6 ml of ethanol and […] ( 1 mol/l) of an aqueous HCl solution were dissolved 5 mg of SDH and 1.5 mg of PNP, followed by adding thereto a physiologically acceptable ^99mTcO4 solution ( 0.5 ml, 50 MBq). […] The complex finally obtained was analyzed by HTLC and HPLC. […]
In a mixture of 0.6 ml of ethanol and 0.1 mg (1 mol/l) of an aqueous HCl solution were dissolved 5 mg of SDH and 1.5 mg of PNP, followed by adding thereto a physiologically acceptable ^99mTcO4^− solution (0.5 ml, 50 MBq). […] The complex finally obtained was analyzed by HTLC and HPLC. […]

[2] = Biodistribution of 99mTc(N)(X)(DTC)+ heterocomplexes in rats; assay type: in vivo, male Spraque-Dawley rats (SD rats)
Protocol: The biodistribution of a ^99mTc nitride heterocomplex represented by the general formula ^99mTc(N)(X)(Y) was investigated as follows: ^99mTc nitride heterocomplexes were synthesized using DTC as a bidentate ligand Y and each of the diphosphine compounds X described below, and the biodistribution in rats of each heterocomplex was investigated.
Before being injected into rats, the contents of the vial were diluted with phosphate buffer (0.1 mol/dm^3, pH=7.06) containing 10% Tween 80 ([…]). The complexes were stable in the solutions and in human plasma for at least 6 hours.
The biodistribution was measured using male Spraque-Dawley rats (SD rats) weighing 200 to 250 g. After 24 hours fasting, the rats were put under intraperitoneal anesthesia and given an injection in the jugular vein. Then, the organs were excised from the rats at different intervals of time, washed and then weighed. In addition, blood samples were collected and then weighed. The data on the biodistribution are expressed as the mean±significant difference of the percentage of radioactivity level per gram of the organ weight based on the dose of radioactivity, (% dose/g). The measurement was carried out using groups of 5 rats each.

CCN1CC[PH](c2ccccc2)(c2ccccc2)[99Tc]2(#[N])([O]C(=O)c3ccccc3[S]2)[PH](c2ccccc2)(c2ccccc2)CC1 [Example 3]
stability of the complex / solution of the complex [1]: stable

CCON(CC)C1=[S+][99Tc]2(#[N])([S]1)[PH](c1ccccc1)(c1ccccc1)CCN(CC)CC[PH]2(c1ccccc1)c1ccccc1 [Example 4]
stability of the complex / solution of the complex [1]: stable

CSC1=[S+][99Tc-2]2(#[N])([NH]N1C)[P+](c1ccccc1)(c1ccccc1)CCOCC[P+]2(c1ccccc1)c1ccccc1 [^99mTc(N)(POP)(DTC)^+]
Bone % dose/g [2]: 0.225 ± 0.01 % dose/g
Heart % dose/g [2]: 0.923 ± 0.04 % dose/g
Liver % dose/g [2]: 3.662 ± 0.43 % dose/g
Spleen % dose/g [2]: 2.202 ± 0.07 % dose/g
Blood % dose/g ([2]; 0 min after injection): 2.617 ± 0.04 % dose/g
Brain % dose/g ([2]; 0 min after injection): 0.142 ± 0.14 % dose/g
Intestine % dose/g ([2]; 0 min after injection): 0.482 ± 0.02 % dose/g
Kidney % dose/g ([2]; 0 min after injection): 3.141 ± 0.35 % dose/g
Lung % dose/g ([2]; 0 min after injection): 2.792 ± 0.18 % dose/g
Muscle % dose/g ([2]; 0 min after injection): 0.087 ± 0.00 % dose/g
Stomach % dose/g ([2]; 0 min after injection): 0.522 ± 0.09 % dose/g
Blood % dose/g ([2]; 2 min after injection): 1.254 ± 0.19 % dose/g
Bone % dose/g ([2]; 2 min after injection): 0.214 ± 0.05 % dose/g
Brain % dose/g ([2]; 2 min after injection): 0.073 ± 0.00 % dose/g
Heart % dose/g ([2]; 2 min after injection): 0.73 ± 0.07 % dose/g
Intestine % dose/g ([2]; 2 min after injection): 0.581 ± 0.06 % dose/g
Kidney % dose/g ([2]; 2 min after injection): 5.952 ± 0.74 % dose/g
Liver % dose/g ([2]; 2 min after injection): 4.821 ± 0.71 % dose/g
Lung % dose/g ([2]; 2 min after injection): 2.387 ± 0.08 % dose/g
Muscle % dose/g ([2]; 2 min after injection): 0.075 ± 0.00 % dose/g
Spleen % dose/g ([2]; 2 min after injection): 3.587 ± 0.99 % dose/g
Stomach % dose/g ([2]; 2 min after injection): 0.493 ± 0.02 % dose/g
Blood % dose/g ([2]; 10 min after injection): 0.542 ± 0.02 % dose/g
Bone % dose/g ([2]; 10 min after injection): 0.306 ± 0.07 % dose/g
Brain % dose/g ([2]; 10 min after injection): 0.029 ± 0.00 % dose/g
Heart % dose/g ([2]; 10 min after injection): 0.434 ± 0.05 % dose/g
Intestine % dose/g ([2]; 10 min after injection): 0.934 ± 0.03 % dose/g
Kidney % dose/g ([2]; 10 min after injection): 4.805 ± 0.51 % dose/g
Liver % dose/g ([2]; 10 min after injection): 6.161 ± 0.47 % dose/g
Lung % dose/g ([2]; 10 min after injection): 1.19 ± 0.40 % dose/g
Muscle % dose/g ([2]; 10 min after injection): 0.069 ± 0.01 % dose/g
Spleen % dose/g ([2]; 10 min after injection): 3.538 ± 0.70 % dose/g
Stomach % dose/g ([2]; 10 min after injection): 0.653 ± 0.06 % dose/g
Blood % dose/g ([2]; 30 min after injection): 0.547 ± 0.01 % dose/g
Bone % dose/g ([2]; 30 min after injection): 0.21 ± 0.02 % dose/g
Brain % dose/g ([2]; 30 min after injection): 0.023 ± 0.00 % dose/g
Heart % dose/g ([2]; 30 min after injection): 0.428 ± 0.05 % dose/g
Intestine % dose/g ([2]; 30 min after injection): 0.64 ± 0.00 % dose/g
Kidney % dose/g ([2]; 30 min after injection): 3.25 ± 1.12 % dose/g
Liver % dose/g ([2]; 30 min after injection): 6.199 ± 0.15 % dose/g
Lung % dose/g ([2]; 30 min after injection): 1.05 ± 0.13 % dose/g
Muscle % dose/g ([2]; 30 min after injection): 0.083 ± 0.03 % dose/g
Spleen % dose/g ([2]; 30 min after injection): 2.07 ± 0.55 % dose/g
Stomach % dose/g ([2]; 30 min after injection): 0.216 ± 0.01 % dose/g
Blood % dose/g ([2]; 1 hr after injection): 0.261 ± 0.14 % dose/g
Bone % dose/g ([2]; 1 hr after injection): 0.327 ± 0.02 % dose/g
Brain % dose/g ([2]; 1 hr after injection): 0.019 ± 0.00 % dose/g
Heart % dose/g ([2]; 1 hr after injection): 0.42 ± 0.05 % dose/g
Intestine % dose/g ([2]; 1 hr after injection): 1.236 ± 0.03 % dose/g
Kidney % dose/g ([2]; 1 hr after injection): 5.054 ± 0.18 % dose/g
Liver % dose/g ([2]; 1 hr after injection): 5.128 ± 0.15 % dose/g
Lung % dose/g ([2]; 1 hr after injection): 0.771 ± 0.09 % dose/g
Muscle % dose/g ([2]; 1 hr after injection): 0.068 ± 0.01 % dose/g
Spleen % dose/g ([2]; 1 hr after injection): 3.542 ± 1.23 % dose/g
Stomach % dose/g ([2]; 1 hr after injection): 0.944 ± 0.16 % dose/g
Blood % dose/g ([2]; 2 hr after injection): 0.145 ± 0.01 % dose/g
Bone % dose/g ([2]; 2 hr after injection): 0.296 ± 0.01 % dose/g
Brain % dose/g ([2]; 2 hr after injection): 0.018 ± 0.01 % dose/g
Heart % dose/g ([2]; 2 hr after injection): 0.384 ± 0.00 % dose/g
Intestine % dose/g ([2]; 2 hr after injection): 1.478 ± 0.09 % dose/g
Kidney % dose/g ([2]; 2 hr after injection): 5.145 ± 0.11 % dose/g
Liver % dose/g ([2]; 2 hr after injection): 3.05 ± 0.07 % dose/g
Lung % dose/g ([2]; 2 hr after injection): 0.757 ± 0.05 % dose/g
Muscle % dose/g ([2]; 2 hr after injection): 0.066 ± 0.03 % dose/g
Spleen % dose/g ([2]; 2 hr after injection): 4.32 ± 0.19 % dose/g
Stomach % dose/g ([2]; 2 hr after injection): 1.857 ± 0.22 % dose/g
Blood % dose/g ([2]; 4 hr after injection): 0.125 ± 0.00 % dose/g
Bone % dose/g ([2]; 4 hr after injection): 0.321 ± 0.01 % dose/g
Brain % dose/g ([2]; 4 hr after injection): 0.01 ± 0.00 % dose/g
Heart % dose/g ([2]; 4 hr after injection): 0.303 ± 0.01 % dose/g
Intestine % dose/g ([2]; 4 hr after injection): 1.843 ± 0.02 % dose/g
Kidney % dose/g ([2]; 4 hr after injection): 1.745 ± 0.11 % dose/g
Liver % dose/g ([2]; 4 hr after injection): 1.538 ± 0.01 % dose/g
Lung % dose/g ([2]; 4 hr after injection): 0.549 ± 0.03 % dose/g
Muscle % dose/g ([2]; 4 hr after injection): 0.067 ± 0.00 % dose/g
Spleen % dose/g ([2]; 4 hr after injection): 3.094 ± 0.50 % dose/g
Stomach % dose/g ([2]; 4 hr after injection): 1.74 ± 0.01 % dose/g
